We go through one compound from article PMC10180065, “Mechanistic Studies of Arene–Ruthenium(II) Complexes with Carbothioamidopyrazoles as Alternative Cancer Drugs” (Molecules, 2023).

One data set has as its system HT29. Description: MTT cytotoxicity, HT29. It counts as cell-based, human. Particulars: 48 h incubation, read-out: Cytotoxic effect, IC50. How it is done: (§1) Cytotoxicity was evaluated against fifteen adherent human cancer cell lines using the MTT test: colorectal adenocarcinoma cells Caco2 (ATCC® HTB-37™), colorectal adenocarcinoma cells HT29 (ATCC® HTB-38™), colon colorectal carcinoma HCT116 (ATCC® CCL-247™), colon adenocarcinoma COLO205 (ATCC® CCL-222™), colorectal adenocarcinoma SW620 (ATCC® CCL-227™), colorectal adenocarcinoma grade IV LoVo (ATCC® CCL-229™), hepatocellular carcinoma Hep 3b (ATCC® HB-8064™), endometrium adenocarcinoma HEC1A (ATCC® HTB-112™), Ishikawa (99040201; Sigma–Aldrich Sigma, St. Louis, MO, USA), cervical adenocarcinoma cells HeLa (ATCC® CCL-2™), lung epithelial carcinoma A549 (ATCC® CRM-CCL-185™), breast epithelial adenocarcinoma cell positive for estrogen and progesterone receptors MCF7 (ATCC® HTB-22™) and negative for expression of estrogen receptor HCC38 (ATCC® CRL-2314™), acute promyelocytic leukemia HL-60 (ATCC® CCL-240™), skin melanoma WM115 (ATCC® CRL-1676™), and 1 suspension cancer cell line: acute lymphoblastic leukemia NALM6 (purchased from the German Collection of Microorganisms and Cell Cultures). HT29, NALM6, HCC-38 and HL-60 cells were cultured in RPMI 1640 medium (Thermo Fisher Scientific, Waltham, MA, USA) supplemented with 10% fetal bovine serum and antibiotic (gentamicin 25 μg ml^−1) (Gibco, Grand Island, New York, NY, USA). For the remaining tumor cell lines, Dulbecco’s minimal essential medium (DMEM, Lonza, Visp, Switzerland) supplemented with 10% fetal bovine serum and antibiotic instead of RPMI 1640 was used. In addition, Human Microvascular Endothelial Cells (HMEC1), which were obtained from the American Type Culture Collection (Manassas, VA, USA), were used as a model of normal cells. HMEC-1 were cultured in MCDB131 medium (Corning Life Sciences, Corning, NY, USA), supplemented with 10% fetal bovine serum, 10 ng/mL Epidermal Growth Factor (Millipore, Burlington, MA, USA) and 10 mM glutamine (Corning Life Sciences). All cells were grown at 37 °C in humidified atmosphere of 5% CO2 in air. The exponential growth of cells was maintained by regular passaging at 90% confluence three times a week using 0.025% trypsin/EDTA (Gibco, Grand Island, New York, NY, USA).
(§2) The cytotoxicity was tested by a standard MTT [3-(4,5-dimethylthiazol-2-yl)-2,5-diphenyltetrazolium bromide] (Sigma, St. Louis, MO, USA) microplate cell viability assay. The anticancer activity of the investigated compounds was evaluated in vitro on the basis of their ability to inhibit the proliferation of various cancer cells. Exponentially growing cells were seeded a day before the experiment into a 96-well microplate (Nunc, Roskilde, Denmark) at a density up to 6–8 × 10^3 cells/mL (depending on the cell line) and exposed to the test compounds at a wide range of concentrations for 48 h. Subsequently, various concentrations of the studied compounds (10^−7–10^−5 M) freshly prepared in DMSO (final concentration of <0.1% DMSO) and diluted with complete culture medium were added. After 48 h incubation, the cells were immediately subjected to a cell viability assay. At this time point, the number of viable cells in each well was estimated by the MTT test. Briefly, 50 µL (5 mg/mL final concentration) of MTT was added to each microplate well. This procedure was then followed by a three- to four-hour incubation at 37 °C. After incubation, MTT solution was replaced with 100 µL DMSO/well, which solubilized the formazan crystals formed by the dehydrogenases of metabolically active cells. Purple formazan absorbance was measured spectrophotometrically at 570 nm.
As to `Cc1ccc(C(C)C)cc1.NC(=S)n1nc(-c2ccccc2)cc1O.[Cl-].[Cl][Ru+]` [2c], the IC50 came to 29.5 ± 2.1 µM.

A further data set concerns NALM6. The experiment in a line: MTT cytotoxicity, NALM6. To be noted: 48 h incubation, read-out: Cytotoxic effect, IC50. In kind it is cell-based, human. How it is done:
as §1, §2
On to `Cc1ccc(C(C)C)cc1.NC(=S)n1nc(-c2ccccc2)cc1O.[Cl-].[Cl][Ru+]` [2c], for which the IC50 is 11.7 ± 1.6 µM.

For the next data set, the system named is MCF7. The experiment in a line: MTT cytotoxicity, MCF7. It counts as cell-based, human. To be noted: 48 h incubation, read-out: Cytotoxic effect, IC50. How it is done: as §1, §2
Regarding `Cc1ccc(C(C)C)cc1.NC(=S)n1nc(-c2ccccc2)cc1O.[Cl-].[Cl][Ru+]` [2c], the IC50 was determined as 83.4 ± 7.3 µM.

The next data set concerns Hep 3b. The experiment in a line: MTT cytotoxicity, Hep 3b. It counts as cell-based, human. Particulars: 48 h incubation, read-out: Cytotoxic effect, IC50. How it is done:
as §1, §2
Turning to `Cc1ccc(C(C)C)cc1.NC(=S)n1nc(-c2ccccc2)cc1O.[Cl-].[Cl][Ru+]` [2c], the IC50 is 104 ± 4.4 µM.

In a further data set the test system is Caco2. The experiment in a line: MTT cytotoxicity, Caco2. Particulars: 48 h incubation, read-out: Cytotoxic effect, IC50. It counts as cell-based, human. How it is done: as §1, §2
Regarding `Cc1ccc(C(C)C)cc1.NC(=S)n1nc(-c2ccccc2)cc1O.[Cl-].[Cl][Ru+]` [2c], the IC50 was greater than 200 µM.

The subject of another data set is HEC1A. The experiment in a line: Mitochondrial potential, JC-1 probe, HEC1A. It counts as cell-based, human. Particulars: IC50 concentration. How it is done: Cells (10 × 10^3/well) were seeded in black 96-well plates and grown for 24 h to reach the log phase. […] After removing the medium, the cell monolayer was washed twice with PBS solution and 50 μL of the JC-1 probe at a final concentration of 5 μM was added to the wells of the plate. The cells were incubated with the dye for 30 min in a CO2 incubator. Subsequently, the changes in the fluorescence of monomers (λex = 485 nm and λem = 525 nm) and aggregates (λex = 530 nm and λem = 590 nm) using JC-1 were monitored. The results of the tested trials were presented as the ratio of fluorescence of aggregates and JC1 monomers as a percentage of control values, which was assumed to be 100%.
Regarding `Cc1ccc(C(C)C)cc1.NC(=S)n1nc(-c2ccccc2)cc1O.[Cl-].[Cl][Ru+]` [2c], the “decrease in mitochondrial potential (JC-1)” value is given as roughly 50%.

The test system of the next data set is SW620. Description: MTT cytotoxicity, SW620. It counts as cell-based, human. Particulars: 48 h incubation, read-out: Cytotoxic effect, IC50. How it is done: as §1, §2
On to `Cc1ccc(C(C)C)cc1.NC(=S)n1nc(-c2ccccc2)cc1O.[Cl-].[Cl][Ru+]` [2c], for which the IC50 worked out at 49.4 ± 1.2 µM.

In a further data set the test system is A549. Description: MTT cytotoxicity, A549. It counts as cell-based, human. To be noted: 48 h incubation, read-out: Cytotoxic effect, IC50. How it is done: as §1, §2
Regarding `Cc1ccc(C(C)C)cc1.NC(=S)n1nc(-c2ccccc2)cc1O.[Cl-].[Cl][Ru+]` [2c], the IC50 is greater than 200 µM.

A further data set has as its system LoVo. Description: MTT cytotoxicity, LoVo. To be noted: 48 h incubation, read-out: Cytotoxic effect, IC50. It counts as cell-based, human. How it is done:
as §1, §2
Regarding `Cc1ccc(C(C)C)cc1.NC(=S)n1nc(-c2ccccc2)cc1O.[Cl-].[Cl][Ru+]` [2c], the IC50 worked out at 42.6 ± 3.2 µM.

The subject of the next data set is human cancer cell lines. Description: MTT cytotoxicity, summary statements over the cancer cell line panel. It counts as cell-based. To be noted: read-out: IC50 for seven (2c) and six (3c) cancer cell lines. How it is done: Cytotoxicity was evaluated against fifteen adherent human cancer cell lines using the MTT test: colorectal adenocarcinoma cells Caco2 (ATCC® HTB-37™), colorectal adenocarcinoma cells HT29 (ATCC® HTB-38™), colon colorectal carcinoma HCT116 (ATCC® CCL-247™), colon adenocarcinoma COLO205 (ATCC® CCL-222™), colorectal adenocarcinoma SW620 (ATCC® CCL-227™), colorectal adenocarcinoma grade IV LoVo (ATCC® CCL-229™), hepatocellular carcinoma Hep 3b (ATCC® HB-8064™), endometrium adenocarcinoma HEC1A (ATCC® HTB-112™), Ishikawa (99040201; Sigma–Aldrich Sigma, St. Louis, MO, USA), cervical adenocarcinoma cells HeLa (ATCC® CCL-2™), lung epithelial carcinoma A549 (ATCC® CRM-CCL-185™), breast epithelial adenocarcinoma cell positive for estrogen and progesterone receptors MCF7 (ATCC® HTB-22™) and negative for expression of estrogen receptor HCC38 (ATCC® CRL-2314™), acute promyelocytic leukemia HL-60 (ATCC® CCL-240™), skin melanoma WM115 (ATCC® CRL-1676™), and 1 suspension cancer cell line: acute lymphoblastic leukemia NALM6 (purchased from the German Collection of Microorganisms and Cell Cultures). […]
The cytotoxicity was tested by a standard MTT [3-(4,5-dimethylthiazol-2-yl)-2,5-diphenyltetrazolium bromide] […] The anticancer activity of the investigated compounds was evaluated in vitro on the basis of their ability to inhibit the proliferation of various cancer cells. […]
As for `Cc1ccc(C(C)C)cc1.NC(=S)n1nc(-c2ccccc2)cc1O.[Cl-].[Cl][Ru+]` [2c], the concentration for half-maximal inhibition (IC50) was less than 50 µM.

Another data set relates to HEC1A. The experiment in a line: MTT cytotoxicity, HEC1A. It counts as cell-based, human. To be noted: 48 h incubation, read-out: Cytotoxic effect, IC50. How it is done: as §1, §2
Take `Cc1ccc(C(C)C)cc1.NC(=S)n1nc(-c2ccccc2)cc1O.[Cl-].[Cl][Ru+]` [2c]: the IC50 is 24.5 ± 0.9 µM.

For another data set, the system named is Ishikawa. Description: MTT cytotoxicity, Ishikawa. In kind it is cell-based, human. Particulars: 48 h incubation, read-out: Cytotoxic effect, IC50. How it is done: as §1, §2
As to `Cc1ccc(C(C)C)cc1.NC(=S)n1nc(-c2ccccc2)cc1O.[Cl-].[Cl][Ru+]` [2c], the half-inhibitory concentration (IC50) was determined as 142 ± 7.4 µM.

A further data set relates to HCC38. The experiment in a line: MTT cytotoxicity, HCC38. Particulars: 48 h incubation, read-out: Cytotoxic effect, IC50. In kind it is cell-based, human. How it is done: as §1, §2
In the case of `Cc1ccc(C(C)C)cc1.NC(=S)n1nc(-c2ccccc2)cc1O.[Cl-].[Cl][Ru+]` [2c], the IC50 is greater than 200 µM.

Another data set deals with HL60. Description: MTT cytotoxicity, HL60. In kind it is cell-based, human. To be noted: 48 h incubation, read-out: Cytotoxic effect, IC50. How it is done:
as §1, §2
`Cc1ccc(C(C)C)cc1.NC(=S)n1nc(-c2ccccc2)cc1O.[Cl-].[Cl][Ru+]` [2c]: the IC50 is 86.5 ± 8 µM.

The next data set concerns Colo205. Description: MTT cytotoxicity, Colo205. In kind it is cell-based, human. Particulars: 48 h incubation, read-out: Cytotoxic effect, IC50. How it is done:
as §1, §2
As to `Cc1ccc(C(C)C)cc1.NC(=S)n1nc(-c2ccccc2)cc1O.[Cl-].[Cl][Ru+]` [2c], the IC50 stood at 32.6 ± 3.3 µM.

Test system in a further data set: not listed separately
Description: Lipophilicity by RP-TLC. Particulars: eluent AcCN: H2O at 30–70% v/v, 22 °C. The arrangement: key: RM = log(1/Rf − 1), Rf = a/b. It counts as physicochemical. How it is done:
All the experimental solutions of standard substances (0.1 mg/mL) were prepared by dissolving ligands (1a–1d) or ruthenium complexes (2a/3a–2d/3d) in ethanol. Commercially-available octadecyl-modified silica aluminum sheets (20 × 20 cm) were cut into 5 × 10 cm plates. The plates were manually spotted with 1.0 μL of freshly prepared solutions using automatic pipets, 5 mm from each edge. The chromatograms for all compounds (1a/2a/3a–1d/2d/3d) were developed using a horizontal developing chamber and the solvent migration distance was about 4.5 cm. The plates were visually inspected under UV light at 254 nm. Each zone was clearly marked and its distance was manually measured. The RP-TLC analyses of lipophilicity were performed at ambient temperature (22 °C). In this experiment, all measurements were performed in triplicate and the obtained results were used in further calculations. The acetonitrile and water mixtures for ligands 1a–1d and arene–ruthenium(II) complexes 2a/3a–2d/3d were used as mobile phases, with […] content increasing in the range of 30–70% v/v, at 5% intervals. Values of the chromatographic retention coefficient Rf (as shown Formula (1)) and RM (as shown Formula (2)), based on received chromatograms, were calculated and converted as follows:(1) Rf=a/b (2) RM=log1/Rf−1
On to `Cc1ccc(C(C)C)cc1.NC(=S)n1nc(-c2ccccc2)cc1O.[Cl-].[Cl][Ru+]` [2c], for which the “Lipophilicity, RM” value is 2.27.

In a further data set the test system is Hela. Description: MTT cytotoxicity, Hela. In kind it is cell-based, human. Particulars: 48 h incubation, read-out: Cytotoxic effect, IC50. How it is done: as §1, §2
On to `Cc1ccc(C(C)C)cc1.NC(=S)n1nc(-c2ccccc2)cc1O.[Cl-].[Cl][Ru+]` [2c], for which the concentration for half-maximal inhibition (IC50) is 124 ± 7.2 µM.

For a further data set, the system named is human microvascular endothelial cell line HMEC1. Description: MTT cytotoxicity, normal endothelial cells HMEC1. In kind it is cell-based. Particulars: HMEC1 normal endothelial cells, 48 h incubation, read-out: Cytotoxic effect, IC50. How it is done:
as §1, §2
Regarding `Cc1ccc(C(C)C)cc1.NC(=S)n1nc(-c2ccccc2)cc1O.[Cl-].[Cl][Ru+]` [2c], the IC50 was found to be 192 ± 6.5 µM.

Staying with this data set, now noted: HMEC-1 vs cancer cells.
`Cc1ccc(C(C)C)cc1.NC(=S)n1nc(-c2ccccc2)cc1O.[Cl-].[Cl][Ru+]` [2c]: the “IC50 for HMEC-1 higher than for cancer cells (selectivity)” value was 3–5 times.

A further data set relates to WM115. The experiment in a line: MTT cytotoxicity, WM115. It counts as cell-based, human. Particulars: 48 h incubation, read-out: Cytotoxic effect, IC50. How it is done: as §1, §2
Regarding `Cc1ccc(C(C)C)cc1.NC(=S)n1nc(-c2ccccc2)cc1O.[Cl-].[Cl][Ru+]` [2c], the IC50 came out at 26.7 ± 3.3 µM.
